The results in this text go back to PMC11425624, “Synthesis of Novel Cu(II), Co(II), Fe(II), and Ni(II) Hydrazone Metal Complexes as Potent Anticancer Agents: Spectroscopic, DFT, Molecular Docking, and MD Simulation Studies” (ACS Omega, 2024).

For series [1], the system named is A549. The series is described as follows: MTT cytotoxic activity assay, A549 cells, 72 h. It is filed as cell-based, human. The conditions noted are these: for IC50: A549 human lung cancer cell line, MTT. The method, then:
(§1) The complexes were tested in human lung cancer and normal embryonic kidney cell lines for 72 h.
The MTT stock solution (50 μL, 5 mg/mL) was added to each well. Absorbance was measured using an Epoch 2 ELISA plate reader at 590 nm. The IC50 values were calculated using GraphPad Prism Software version 5.
For orientation: Formazan colour is commonly taken as a measure of viable cells.

Series [2] relates to HEK-293T. As to the kind of experiment: MTT cytotoxic activity assay, HEK-293T cells, 72 h. Type of series: cell-based. Conditions: HEK-293T healthy human embryonic kidney cell line. The method, then: as §1
Cytotoxic activity studies of compounds (L, L-Cu, L-Co, and L-Fe) were conducted according to the literature.[60] Human lung epithelial carcinoma cells (A549; ATCC CCL-185) and healthy human embryonic kidney cells (HEK-293T) were cultured in Dulbecco’s modified Eagle’s medium-high-glucose supplemented with 10% fetal bovine serum and 1% GlutaMAX in a CO2 incubator at 37 °C. Cells seeded in 96-well plates were exposed to 200, 100, 50, and 25 μM of compounds for 72 h. The MTT stock solution (50 μL, 5 mg/mL) was added to each well. Absorbance was measured using an Epoch 2 ELISA plate reader at 590 nm. The IC50 values were calculated using GraphPad Prism Software version 5.

Series [3] can be described thus: Dissolution in cytotoxicity assay medium (0.5% DMSO, DMEM). Type of series: physicochemical. The source says: When the ligand and L-Cu were compared, the cytotoxic effect of L-Cu was almost 17 times more cytotoxic than that of the ligand, including 2-hydroxybenzylidene and 4-fluorobenzohydrazide groups. […] However, the effect of the other two metal complexes (L-Co and L-Fe) and the ligand used as the starting material on the growth of A549 cells was very low compared to that of the positive control drug.

[4] abbreviates: A549, 50 μM concentration of compound, 72 h.
The mark [5] stands for this setting: A549, 200 μM concentration of compound, 72 h.

The IC50 is the concentration needed to halve the response being measured. Read a low IC50 as greater potency. As a reminder, the viability is the share of living cells, or the viability signal relative to a control. For `O=C(NN=Cc1ccccc1O)c1ccc(F)cc1` [L, 4-Fluoro-N′-(2-hydroxybenzylidene)benzohydrazide], the values for the IC50 in series [1] (72 h) and in series [2] were 36.7 µM and 18.2 µM, respectively. In series [1] (Homo sapiens, A549, 50 μM concentration of compound, 72 h, read-out: Cell viability), the viability at 50 µM amounted to 44.9%. Further, the viability at 200 µM in series [1] (Homo sapiens, A549, 200 μM concentration of compound, 72 h, read-out: Cell viability rate) is 8.51%.
For the compound `O=C(NN=Cc1ccccc1[O][Cu][O]c1ccccc1C=NNC(=O)c1ccc(F)cc1)c1ccc(F)cc1` [L-Cu], the Cell viability in series [1] (setting [4]) stood at 5.10%. Besides, the Cell viability rate in series [1] (setting [5]) is 4.66%. Further, the “Effectiveness relative to cisplatin” value in series [1] (A549 cells) was “approximately twice”. Also, the half-inhibitory concentration (IC50) turned out to be 2.14 µM in series [1] (72 h) and 2.32 µM in series [2]. Moreover, the “Times more cytotoxic than the ligand” value in series [1] (L-Cu compared with ligand L) is about 17 times.
`O=C(NN=Cc1ccccc1[O][Fe][O]c1ccccc1C=NNC(=O)c1ccc(F)cc1)c1ccc(F)cc1` [L-Fe] displayed a Cell viability in series [1] (setting [4]) of 92.96%. The compound also registered a Cell viability rate in series [1] (setting [5]) of 5.72%. The IC50 worked out at 78.8 µM in series [1] (72 h) and 69.2 µM in series [2].
Regarding `O.O=C(NN=Cc1ccccc1[O-])c1ccc(F)cc1.O=C(NN=Cc1ccccc1[O-])c1ccc(F)cc1.[Ni+2]` [L-Ni], the “Solubility in assay medium” value in series [3] is “not fully dissolved in 0.5% DMSO and was precipitated in DMEM”.
In the case of `N.N.[Cl][Pt][Cl]` [cisplatin, reference compound], the concentration for half-maximal inhibition (IC50) in series [1] (72 h) was found to be 4.23 µM; in series [2], 2.62 µM.
